# Counter-ions that a name gives are not always drawn.
# How the values were obtained:
# Assay type in all cases: in vivo
# C57BL/6 mice [1] = assay: Trabecular bone volume of the proximal tibia by micro-CT, daily i.p. treatment for 30 days; conditions: for increase in tibia long bone bone-volume/total volume over baseline control: 30 days, micro-CT
# Method: Using the assay described above and in Journal of Bone and Mineral Research 2006, 21(11), 1738-1749 (incorporated herein in its entirety), compounds of the present invention can be identified as promoting bone growth. For example, the mouse test animal is treated with a predetermined dose of a SOST antagonist candidate for a complete dosing schedule. A control mouse is treated with a control solution, preferably a non-irritating buffer solution or other carrier. Once the dosing schedule has been completed, both test and control animals are examined with sacrifice using micro-CT to determine the quantity of bone formation present.
# (§1) Four month old male C57BL/6 mice were treated daily with saline vehicle or the sclerostin inhibitor of eburnamonine phosphate at several doses (via i.p) for 30 days. Study endpoints included a biochemical marker of bone formation; osteocalcin, measured by EIA Elisa, and measurement of trabecular bone volume by mico-CT analysis on the proximal tibia and spine (lumbar 5). […] See also FIG. 3, showing increase in bone volume for the tibia: 5 mg/kg (D) and 0.33 mg/kg (E).
# C57BL/6 mice [2] = assay: Serum osteocalcin (bone formation marker) by EIA Elisa, daily i.p. treatment for 30 days; conditions: for increase in osteocalcin serum levels: FIG. 4
# Method: as §1
# C57BL/6 mice [3] = assay: Bone volume of the spine (lumbar 5) by micro-CT, daily i.p. treatment for 30 days; conditions: i.p. daily 30 days, dose not stated
# Method: as §1
# C57BL/6 mice [4] = assay: Bone volume of the tibia by pQCT after IP treatment (procedure of Example 2); conditions: 10 mg/kg IP
# Method: Four month old male C57BL/6 mice were treated daily with saline vehicle or the sclerostin inhibitor of eburnamonine phosphate at several doses (via i.p) for 30 days. […] See also FIG. 3, showing increase in bone volume for the tibia: 5 mg/kg (D) and 0.33 mg/kg (E). […] Using the procedure set forth in Example 2, vinpocetine citrate was investigated for bone growth.
SMILES,"increase in tibia long bone bone-volume/total volume over baseline control (C57BL/6 mice [1]; FIG. 1 (B), 5 mg/kg i.p. daily) [%]","increase in tibia long bone bone-volume/total volume over baseline control (C57BL/6 mice [1]; FIG. 1 (C), 1 mg/kg i.p. daily) [%]","increase in tibia long bone bone-volume/total volume compared to baseline controls (C57BL/6 mice [1]; FIG. 3 (D), 5 mg/kg) [%]","increase in tibia long bone bone-volume/total volume compared to baseline controls (C57BL/6 mice [1]; FIG. 3 (E), 0.33 mg/kg) [%]","percent change in serum osteocalcin increase versus saline controls (C57BL/6 mice [2]; FIG. 2, 5 mg/kg i.p. daily, 30 days, mice) [%]","increase in osteocalcin serum levels (C57BL/6 mice [2]; 0.33 mg/kg, mice) [%]",increase in bone volume of lumbar 5 (U-CT) (C57BL/6 mice [3]) [%],increase in bone volume of the tibia (pQCT) (C57BL/6 mice [4]) [%],"increase in osteocalcin serum levels (C57BL/6 mice [2]; 10 mg/kg, over baseline) [%]"
CCC12CCCN3CCc4c(n(c5ccccc45)C(=O)C1)C32 (stereo not drawn) [eburnamonine phosphate],17,10,9,17,35,39,52,–,–
CCOC(=O)C1=CC2(CC)CCCN3CCc4c(n1c1ccccc41)C32 (stereo not drawn) [vinpocetine citrate],–,–,–,–,–,–,–,8,62

# Source: patent US8198292B2, “Vinpocetine and eburnamonine derivatives for promoting bone growth, treating renal damage and cancer, and devices thereof” (Osteogenex, Inc., priority 2008, dated 2012)
